This is an account of results in patent US20210085676A1, “TREATMENT FOR AGE- AND OXIDATIVE STRESS-ASSOCIATED MUSCLE ATROPHY AND WEAKNESS” (Oklahoma Medical Research Foundation, priority 2018, published 2021).

“Also recorded” adds a separate entry of the source.

Experiment [1] deals with EDL muscle of Sod1−/− mice. The experiment in a line: Contractile measurements in isolated EDL muscle of treated Sod1−/− mice. It is filed as in vivo, mouse. Here is the method: Animals. The generation and characterization of the Sod1^−/− mice is described in detail elsewhere (3, 24). Female ≈2 months old C57BL/6J wild-type (WT; n=12-18) and Sod1^−/− mice (n=12-18) were divided into four groups and treated with either vehicle (10% DMSO, 10% Tween-80 in PBS) or CDN1163 (50 mg/kg) by intraperitoneal injection three times per week for 7 weeks. Care and management of the mice was executed according to The Guide for the Care and Use of Laboratory Animals and approved by the institutional Animal Care and Use Committee at the Oklahoma Medical Research Foundation (OKC, Okla., USA). Contractile Measurements. Contractile force generation was measured in isolated extensor digitorum longus (EDL) muscle using a 1200A in vitro test system (Aurora Scientific Inc.) as described elsewhere (7). Briefly, muscles were individually tied to a model 300C servomotor (Aurora Scientific Inc.) and fixed within a water bath containing an oxygenated (95% O2, 5% CO2) Krebs-Ringer solution (in mM: 137 NaCl, 5 KCl, 1 MgSO4, 1 NaH2PO4, 24 NaHCO3, 2 CaCl2) maintained at 32 C. Computer controlled stimulation was applied through a model 701C stimulator (Aurora Scientific Inc.). Force frequency curves were generated with stimulation frequencies between 1 and 300 Hz, while the fatigue protocol consisted of repeated 150 Hz stimuli, every 5 s for 400 s. All data were recorded and analyzed using commercial software (DMC and DMA, Aurora Scientific). Specific force (N/cm^2) was measured using muscle length and mass. Example 3. CDN1163 prevents contractile dysfunction in the Sod1^−/− mice. In agreement with the inventor's previous findings, the inventors measured a significant decline in the in-vitro specific force measured in EDL muscle of Sod1^−/− mice (˜19%, p<0.05) when compared to WT mice (FIG. 3A). […] On the other hand, CDN1163 has no effect on the time to peak contraction (TTP) and half relaxation time (RT1/2) in the EDL muscle during twitch contractions (FIGS. 3B, 3C).

The test system of experiment [2] is isolated mitochondria from the gastrocnemius muscle. The experiment can be described thus: Mitochondrial H2O2 production (Amplex red-HRP) in isolated mitochondria from gastrocnemius muscle of treated mice. It is filed as in vivo, mouse. The conditions noted are these: Sod1−/− mice. Here is the method:
(§1) Animals. The generation and characterization of the Sod1^−/− mice is described in detail elsewhere (3, 24). Female ≈2 months old C57BL/6J wild-type (WT; n=12-18) and Sod1^−/− mice (n=12-18) were divided into four groups and treated with either vehicle (10% DMSO, 10% Tween-80 in PBS) or CDN1163 (50 mg/kg) by intraperitoneal injection three times per week for 7 weeks. Care and management of the mice was executed according to The Guide for the Care and Use of Laboratory Animals and approved by the institutional Animal Care and Use Committee at the Oklahoma Medical Research Foundation (OKC, Okla., USA).
Mitochondrial function. Mitochondrial isolation and assays for H2O2 generation were performed in gastrocnemius muscle as described previously by the inventor's laboratory (27). Freshly isolated mitochondria were used for H2O2 release assay using the Amplex red-HRP method. Isolated mitochondrial are exposed to respiratory substrates and HRP (1 U Ml-1) in the assay buffer catalyzes the H2O2-dependent oxidation of non-fluorescent Amplex Red (80 μM) (Molecular Probes, Eugene, Oreg., USA) to fluorescent resofurin red (excitation λ=544 nm, emission λ=590 nm at 37° C.). The slope of the increase in fluorescence was converted to the rate of H2O2 production with standard curve.
CDN1163 attenuates mitochondrial dysfunction in the Sod1^−/− mice. It is well documented that elevated levels of cytosolic Ca^2+ lead to increased mitochondrial ROS production (16). The inventors have previously shown that the mitochondria from the Sod1^−/− mice show structural and functional defects (4, 5). To test whether the activation of SERCA pump function improves mitochondrial function, the inventors measured mitochondrial ROS production as H2O2 emission using isolated mitochondria from the gastrocnemius muscle. […] CDN1163 treatment in the Sod1^−/− mice returns glutamate/malate stimulated H2O2 generation to WT levels (FIG. 4A).

The test system of a further experiment is old wildtype mice. The experiment can be described thus: Aging study in old wildtype mice (24-26 months), 8-10 months treatment. The class given is in vivo, mouse. The source says: The present inventors studied a group of old wildtype mice (24-26 months) with and without 8-10 months treatment with CDN1163. […] Further, the old mice show significant atrophy of the gastrocnemius muscles when compared to baseline group (≈10%, p<0.05). […] The inventors also measured the muscle force generating capacity in the mouse EDL muscles because of large body of literature showing reduced strength of extensor digitorum longus (EDL) muscle with aging. EDL muscle weakness in the old wild-type mice (≈11%, p<0.05) was consistent with previous studies, when compared to the baseline group. […] This effect was consistent at stimulation frequencies for maximal and sub-maximal (≈50% of maximal force) tetanic forces normalized for muscle mass. […] As such, CDN1163 was able to reduce muscle weakness, while not having side-effects related to muscle half relaxation time and time to maximal twitch force.

The test system of a further experiment is Sod1−/− mice. The experiment in a line: Body mass and gastrocnemius muscle mass in Sod1−/− mouse model of accelerated sarcopenia. It is filed as in vivo. As to conditions: 50 mg/kg i.p. 3 times per week, 7 weeks. Here is the method: as §1, with “USA). CDN1163 prevents gastrocnemius muscle atrophy in the Sod1^−/− mice. […] At 2 months of age, neither absolute (FIG. 2B) nor normalized (FIG. 2C) gastrocnemius muscle mass is statistically lower in Sod1^−/− versus WT female mice. However, at the end of the 7 week period (˜4 months of age) there is a significant decrease in both absolute and normalized gastrocnemius muscle mass in the untreated Sod1^−/− mice compared to untreated WT mice (FIGS. 2B, 2C) consistent with the inventor's previous reports(3).” for “USA).”

The next experiment deals with SERCA. The experiment in a line: SERCA Ca2+-dependent ATPase activity in gastrocnemius muscle homogenates of treated mice. The class given is in vivo, mouse. As to conditions: Sod1−/− mice, 50 mg/kg i.p. 3 times per week, 7 weeks. The protocol: as §1, with “USA). SERCA activity. The measurement of SERCA activity was performed in the muscle homogenates at 37° C. using a spectrophotometric assay as previously described (26). CDN1163 rescues the SERCA activity in the Sod1^−/− mice. Ca^2+-dependent Ca^2+-ATPase activity was measured in gastrocnemius muscle homogenates to determine the effects of CDN1163 on SERCA function. […] Levels of SERCA1 and SERCA2 mRNA and protein were not changed in Sod1^−/− mice and were not altered by CDN1163 treatment (FIGS. 1C, 1D).” for “USA).”

Another experiment deals with ob/ob mouse model. As to conditions: reference 17; cited from earlier work.
Experiment [3] relates to F2-isoprostanes in quadriceps muscle. The experiment in a line: Oxidative damage by F2-isoprostane level in quadriceps muscle of treated mice. The class given is in vivo, mouse. The conditions noted are these: Sod1−/− mice. The protocol:
as §1, with “USA). Analysis of oxidative damage by F2-isoprostane level. The levels of F2-isoprostanes in quadriceps muscle were measured using thin layer chromatography and GC-mass spectrometry as described previously (25). CDN1163 reduces the oxidative damage in the Sod1^−/− mice. The inventors have previously reported increased oxidative damage in the skeletal muscles of Sod1^−/− mice (6) that might be contributing to muscle atrophy and weakness. […] Therefore the inventors investigated whether CDN1163 can prevent oxidative stress-induced damage by measuring the levels of F2-isoprostanes, an indicator of lipid peroxidation, in the quadriceps muscles.” for “USA).”

The mark [4] stands for this setting: EDL muscle, twitch contractions, 7 weeks treatment.
[5] abbreviates: 50 mg/kg i.p. 3 times per week, 7 weeks.
Where [6] appears, read: old wildtype mice 24-26 months, versus 16 month old baseline.

Take `Cc1ccc2cccc(NC(=O)c3ccc(OC(C)C)cc3)c2n1` [CDN1163, 4-(1-Methylethoxy)-N-(2-methyl-8-quinolinyl)-benzamide]: in experiment [1] (setting [4]), the “Half relaxation time (RT1/2)” value is “without affecting; also recorded: no effect” and the “Time to twitch peak tension / time to peak contraction (TTP)” value is on record as “without affecting; also recorded: no effect”. In experiment [1] (Sod1−/− mice, 50 mg/kg i.p. 3 times per week, 7 weeks, measured in vitro, 50 mg/kg), the “Specific force of EDL muscle” value is “completely restored”. Moreover, the “Mitochondrial ROS generation” value in experiment [2] (setting [5]) is recorded as “reversed”. Also, the “Mitochondrial H2O2 production, glutamate/malate stimulated (state-2, complex 1-linked)” value in experiment [2] (7 weeks treatment) is reported as “reduces; also recorded: to WT levels”. Moreover, the “Mitochondrial H2O2 production, State-1 respiration” value in experiment [2] (without external substrate, 7 weeks treatment) is given as “reduces; also recorded: do not show elevated levels”. In addition, in the experiment with old wildtype mice (old wildtype mice), the “Muscle half relaxation time” value was “no significant effects” and the “Time to maximal twitch force” value is recorded as “no significant effects”. In the experiment on old wildtype mice (setting [6]), the “Age-related atrophy of the gastrocnemius muscles” value was “completely prevented” and the “Age-related reduction in body weight” value is listed as “did not prevent”. In addition, the “Age-related decline in EDL muscle force” value with old wildtype mice (old wildtype mice, maximal and sub-maximal tetanic forces normalized for muscle mass) is recorded as “prevented this decline in force”. Further, the “Increase in (normalized) gastrocnemius muscle mass versus untreated Sod1−/− mice” value with Sod1−/− mice (Sod1−/− mice) was determined as 23%. For the same molecule, the “Gastrocnemius muscle mass / atrophy” value in the experiment with Sod1−/− mice (Sod1−/− mice, 50 mg/kg) was “restores; also recorded: completely prevented this atrophy”. The “Body weight (body mass)” value with Sod1−/− mice (WT or Sod1−/− mice, 50 mg/kg) is “did not alter”. Further, the “Maximum Ca2+ dependent SERCA (SR Ca2+-ATPase) activity” value in the experiment with SERCA was “completely restored”. In addition, the “Plasma levels of malondialdehyde (marker of oxidative stress)” value in the experiment with ob/ob mouse model is “reduce”. Besides, the “Reduction of oxidative damage in muscle tissue measured as F2-isoprostanes” value in experiment [3] (setting [5]) is reported as 50%. In addition, the “F2-isoprostanes levels (lipid peroxidation)” value in experiment [3] (quadriceps muscle, 7 weeks treatment) is reported as “reduces; also recorded: prevented this increase”.
